Source: patent publication US6380251B1, “Cyclopentane heptan(ene)oic acid, 2-thiocarbamoyloxy and 2-carbamoyloxy compounds as therapeutic agents” (Allergan Sales, Inc., priority 2000, dated 2002)

Key:
[1] = test system: PGF2α-sensitive receptor provisionally termed FPVASC; experiment: relaxation of smooth muscle of isolated rabbit jugular vein; assay type: cell-based
Method: Activity at different prostanoid receptors was measured in vitro in isolated smooth muscle preparations. FP-activity was measured as contraction of the isolated feline iris sphincter. Activity was also measured as relaxation of smooth muscle of isolated rabbit jugular vein a preparation which appears to contain a unique PGF2α-sensitive receptor provisionally termed FPVASC. TP-vasoconstrictor activity was measured as contraction of rings of the isolated rat thoracic aorta.
Many examples also have pronounced activity at the FP receptor, provisionally termed FP associated with the vascular endothelium in the rabbit jugular vein preparation. Since such agents would be vasodilators they have potential in hypertension and any disease where tissue blood perfusion is compromised. Such indications include, but are not limited to, systemic hypertension, angina, stroke, retinal vascular diseases, claudication, Raynauds disease, diabetes, and pulmonary hypertension.

Dog intraocular pressure = Dog intraocular pressure by applanation pneumatonometry; assay type: in vivo; conditions: dogs, 25 μl to the ocular surface, contralateral eye vehicle, measured before and at 6 hours; FIGS. 3 and 4
Method: The compounds were prepared at the said concentrations in a vehicle comprising 0.1% polysorbate 80 and 10 mM TRIS base. Dogs were treated by administering 25 μl to the ocular surface, the contralateral eye received vehicle as a control. Intraocular pressure was measured by applanation pneumatonometry. Dog intraocular pressure was measured immediately before drug administration and at 6 hours thereafter.

Row | SMILES | EC50 [1] | effect on intraocular pressure (Dog intraocular pressure)
1 | O=C(O)CCC/C=C\C[C@H]1C(O)CC(O)[C@@H]1COC(=O)NCc1ccccc1 (stereo in doubt) [Example 6, 7-[2-Benzylcarbamoyloxymethyl-3,5-dihydroxycyclopentyl]hept-5-enoic acid] | 14200 nM | –
2 | O=C(O)CCC/C=C\C[C@H]1C(O)CC(O)[C@@H]1COC(=S)NCc1ccccc1 (stereo in doubt) [Example 9, 7-[2-Benzylthiocarbamoyloxymethyl-3,5-dihydroxycyclopentyl]hept-5-enoic acid] | 427 nM | lowered intraocular pressure
3 | O=C(O)CCC/C=C\C[C@H]1C(O)CC(O)[C@@H]1COC(=O)Nc1ccccc1 (stereo partly drawn) [Example 3, (Z)-7-((1R,2S,3R,5S)-3,5-Dihydroxy-2-phenzylcarbamoyloxymethylcyclopentyl)-hept-5-enoic acid] | 193000 nM | –
4 | O=C(O)CCC/C=C\C[C@@H]1[C@@H](COC(=O)NCCc2cccs2)[C@H](O)C[C@@H]1O [Example 10, (Z)-7-[(1R,2S,3R,5S)-3,5-Dihydroxy-2-(2-thiophen-2-ylethylcarbamoyloxymethyl)-cyclopentyl]hept-5-enoic acid] | 32000 nM | –
5 | CCCCNC(=S)OC[C@@H]1[C@@H](C/C=C\CCCC(=O)O)[C@@H](O)C[C@H]1O [Example 11, (Z)-7-((1R,2S,3R,5S)-2-Butylthiocarbamoyloxymethyl-3,5-dihydroxycyclopentyl)-hept-5-enoic acid] | 171 nM | –
6 | O=C(O)CCC/C=C\C[C@@H]1[C@@H](COC(=S)NCc2cccc(Cl)c2)[C@H](O)C[C@@H]1O [Example 12, (Z)-7-[(1R,2S,3R,5S)-2-(3-Chlorobenzylthiocarbamoyloxymethyl)-3,5-dihydroxycyclopentyl]hept-5-enoic acid] | 3 nM | lowered intraocular pressure
7 | O=C(O)CCC/C=C\C[C@@H]1[C@@H](COC(=O)NCc2cccc(C(F)(F)F)c2)[C@H](O)C[C@@H]1O [Example 13, (Z)-7-[(1R,2S,3R,5S)-3,5-Dihydroxy-2-(3-trifluoromethylbenzylcarbamoyloxymethyl)cyclopentyl]hept-5-enoic acid] | 2840 nM | –
8 | O=C(O)CCC/C=C\C[C@@H]1[C@@H](COC(=S)NCc2cccc(C(F)(F)F)c2)[C@H](O)C[C@@H]1O [Example 14, (Z)-7-[(1R,2S,3R,5S)-3,5-Dihydroxy-2-(3-trifluoromethylbenzylthiocarbamoyloxymethyl)cyclopentyl]hept-5-enoic acid] | 178 nM | –
9 | O=C(CCC/C=C\C[C@@H]1[C@@H](COC(=S)NCc2cccc(Cl)c2)[C@H](O)C[C@@H]1O)NCCO [Example 18, (3-Chlorobenzyl)thiocarbamic acid O-{(1S,2R,3S,5R)-3,5-dihydroxy-2-[(Z)-6-(2-hydroxyethylcarbamoyl)hex-2-enyl]cyclopentylmethyl}ester] | 11000 nM | –
10 | CCNC(=O)CCC/C=C\C[C@@H]1[C@@H](COC(=S)NCc2cccc(Cl)c2)[C@H](O)C[C@@H]1O [Example 19, (3-Chlorobenzyl)thiocarbamic acid O-[(1S,2R,3S,5R)-2-((Z)-6-ethylcarbamoylhex-2-enyl)-3,5-dihydroxycyclopentylmethyl]ester] | 2910 nM | –
11 | NC(=O)CCC/C=C\C[C@@H]1[C@@H](COC(=S)NCc2cccc(Cl)c2)[C@H](O)C[C@@H]1O [Example 20, (3-Chlorobenzyl)thiocarbamic acid O-[(1S,2R,3S,5R)-2-((Z)-6-carbamoylhex-2-enyl)-3,5-dihydroxycyclopentylmethyl]ester] | 274 nM | –
